Experimental data reported in patent US5214034A, “Catechol derivatives, and preventive and remedial preparations for regressive disorders in the central nervous system containing the same” (priority 1986, dated 1993).
“Also recorded” adds a separate entry of the source. Where two headings read alike, the source gives them in different places.

Key:
[1] = system: production and secretion of NGF on L-M cells; experiment: Promoting action for the production and secretion of NGF on L-M cells of mouse (ELISA); assay type: cell-based; conditions: Mus musculus, 24 h, read-out: Ratio of NGF increase
Text: Catecholamines have also been found in a relatively high concentration to accelerate these functions without being mediated by adrenergic receptors [Y. Furukawa et al., J. Biol. Chem., 261, 6039-6047 (1986)].
The compound having a high activity in Table 1, that is, the catechol derivative having a n-alkyl group in the 3 or 4 position on the ring has been observed an acute cell toxicity in higher concentrations. The toxicity was considered the result of two hydroxyl groups in the catechol structure. Then the hydroxyl groups were esterified or etherified and the resulting derivative was examined the effect on the activity for the production and secretion of NGF.
The experiment was performed according to the procedures of Y. Furukawa et al. which is described in J. Bis Chem., 261, 6039-6047 (1986).
The medium was cultured for 3 days at a temperature of 37° C. After completing the confluency (about 10^6 cells/well), the medium was changed to Medium 199 (0.5 ml/well) containing 0.5% bovine serum albumin (Fraction V, a product of Armour Co.). The sample of the derivative is contained in the medium at a prescribed concentration as illustrated in the Tables.

[2] = system: rats injected with kainic acid at basal forebrain; experiment: Promotion of recovery from retention deficits by repeated learning (passive avoidance); assay type: in vivo, rat (male Sprague-Dawley); design: key: latency in seconds to enter dark chamber, capped at 300 s; conditions: Table 9, i.p. 5 mg/kg before each trial
Description: Effects of the derivative on the behavioral parameters of rats injected with kainic acid at basal forebrain were characterized with regard to both prevention against deficits in retention of passive avoidance learning and promotion of recovery from damaged state by repeated learning.
Male Sprague-Dawley rats (9-10 weeks of age, 200-250 g of weight) were anesthetized with Nembutal (50 mg/kg, i.p.) and placed in a stereotaxic apparatus. Bilateral lesions of the ventral globus pallidus were made by direct stereotaxic application (0.7 mm posterior to bregma, 2.7 mm lateral to the midline, and 7.0 mm ventral to the brain surface) of 0.25 μg of kainic acid in 1 μl of PBS (pH 7.4) to prepare disordered models. Controls were sham-operated rats injected with PBS in place of kainic acid solution.
Passive avoidance procedures were performed by using a two chambered step-through passive avoidance apparatus with a guillotine door. A 3 mA scrambled shock was delivered to the dark floor grids for 3 seconds as a punishment. Habituation trial was conducted prior to the acquisition trial. Each rats were placed in the illuminated chamber and the guillotine door was raised after 10 seconds. As soon as the rats entered into the dark chamber, the door was lowered. The rats were removed after 10 seconds and returned to their home cages. […] The acquisition trial was performed similarly to the habituation trial. In the former case, a rat was placed in the illuminated room and the door was opened after 10 seconds. The door was shut immediately after the rat entered into the dark room, a scrambled foot shock was applied, and then the animal was removed. The latency to enter the dark chamber after opening the door was recorded for 300 seconds in the retention of passive avoidance. The latency exceeding 300 seconds was calculated as 300 seconds.
The promoting effects on the recovery by repeated training from the damaged state of retention were acessed by using 30 rats injected with kainic acid. Rats were subjected to the acquisition trial 10 days after the operation. The rats were equally divided into 3 groups after 24 hours and injected intrapenitroneally with 5 mg/kg of 4-n-propylcatechol and the derivative (A) (R=--CO--, R=H, R2 =n-propyl) respectively as a saline solution. The remaining 10 rats were intraperitoneally injected with saline alone. The first retention trial was carried out two days after the injection. Rats which entered into the dark chamber within 30 seconds were punished by the scrambled foot shock as a training. On the next day, all animals were administered again the same amount of test derivative or saline. These animals were subjected to the second retention trial two days after the second injection.
Retention trials, punishments and additional administrations were repeated as mentioned above four times in all.

[3] = system: NGF; experiment: NGF production in the central nervous system of normal rats by intraperitoneal injection (NGF content of brain tissue, ELISA); assay type: in vivo, rat (Wistar male)
Description: The derivative (A), e.g. R=Two H, R1 =H and R2 =n-propyl (hereinafter referred to as 4-n-propylcatechol), was administered to normal rats by intraperitoneal injection, and the effect was examined.
4-n-Propylcatechol was administered by intraperitoneal injection 4 times every other day in a dosage of 5 mg/kg. The rats were killed two days after the final administration. The NGF content of each parts in brain was measured. The content was compared with those of control group which was administered saline alone.
A variety of the derivative was administered three times every other day. The content of NGF in the forebrain after 48 hours and 7 days from the final administration was measured and illustrated in Table 7.
Wistar male rats (9-10-week old, 200-250 g of weight) were intraperitoneally injected with the test derivative in a volume of 0.5 ml as a saline solution, emulsion or suspension. Dose and administration times were the same as above. The rats were killed by a hard spinal blow two days after the final administration. Each parts of brain were dissected and subjected to the following treatment under ice cooling.
Each parts of brain were weighed and homogenized for 30 strokes by a Dounce type homogenizer in a homogenization buffer (0.1 M Tris-HCl, containing 2% bovine serum albumin fraction V, 2% gelatin, 1.0 M NaCl, 0.02% NaN3, 2 mM EDTA and 2.6 kiu/ml of aprotinin, pH 7.6) at a concentration of 10% (W/V) (only septum 5% (W/V)). Each homogenate was centrifuged at 100,000 xg for 10 minutes, and 50 μl of supernatant was added with the same amount of a dilution buffer (0.1 M Tris-HCl containing 2% bovine serum albumin fraction V, 0.05% NaN3 and 20 mM CaCl2, pH 7.6). Determination was conducted in accordance with a method of S. Furukawa et al. by using a high sensitivity ELISA system on 8-NGF which was described in J. Neurochem., 40, 734-744 (1983). Lower limit of determination is 0.25 pg/ml. Data are indicated as a mean value ±SE on the NGF content of tissue (pg/mg wet tissue) of five rats.

[4] = Acute toxicity (LD50); conditions: mouse, in vivo
Description: The catechol derivative having normal type saturated lower alkyl groups on the ring was administered by intravenous injection (i.v.), intraperitoneal injection (i.p.) or oral route (p.o.) to male ddy mice of 4-week old. The LD50 values (mg/kg) were measured by an ordinary method.

[5] = Table 6, i.p. 5 mg/kg, 4 times every other day
[6] = Table 6, i.p. 5 mg/kg, 4 times every other day, **P 0.01 vs saline

CCCc1ccc(O)c(O)c1 [R = Two H, R1 = H, R2 = n-Propyl, 4-n-propylcatechol]
fold induction at 30 µM [1]: 10.1 ± 1.14
fold induction at 100 µM [1]: 17.1 ± 2.7
Mean latency, 1st retention trial [2]: 47 ± 16
Mean latency, 4th retention trial ([2]; **P < 0.01): 272 ± 14
Mean latency, 2nd retention trial ([2]; *P < 0.05): 147 ± 29
Mean latency, 3rd retention trial ([2]; *P < 0.05): 201 ± 23
NGF production in brain regions (in words) [3]: marked activation of NGF production was observed in frontal cortex, hippocampus and olfactory bulb; also recorded: Significant increase in NGF level was also observed in the original region of cholinergic tracts
NGF content, cerebellum [3, 5]: 0.33 ± 0.16 pg/mg wet tissue
NGF content, striatum [3, 5]: 0.24 ± 0.04 pg/mg wet tissue
NGF content, NBM (nucleus basalis magnecellularis) [3, 6]: 1.69 ± 0.17 pg/mg wet tissue
NGF content, olfactory bulb [3, 6]: 1.70 ± 0.24 pg/mg wet tissue
NGF content, septum [3, 6]: 1.39 ± 0.14 pg/mg wet tissue
NGF content, hippocampus ([3]; Table 6, i.p. 5 mg/kg, 4 times every other day, *P < 0.05 vs saline): 3.92 ± 0.63 pg/mg wet tissue
NGF content, frontal cortex ([3]; Table 6, i.p. 5 mg/kg, 4 times every other day, two days after final administration, *P < 0.05 vs saline): 2.14 ± 0.49 pg/mg wet tissue
NGF content after 48 hr. ([3]; Table 7, i.p., three times every other day, 48 hours after final administration): 1.97 ± 0.41 pg/mg wet tissue of frontal co
NGF content after 7 days ([3]; Table 7, i.p., three times every other day, 7 days after final administration): 2.28 ± 0.29 pg/mg wet tissue of frontal co
LD50 ([4]; ip, intraperitoneal injection, read-out: LD50 i.p.): > 500 mg/kg
LD50 ([4]; intravenous injection, read-out: LD50 i.v.): > 150 mg/kg
LD50 ([4]; oral route, read-out: LD50 p.o.): > 1500 mg/kg
